# Data as given in patent publication US12545895B2, “Protection of beta cells from immune attack” (Joslin Diabetes Center, priority 2017, dated 2026).
# System: NIT-1 cells
# Assay: Co-culture of NIT-1 cells with NOD splenocytes, active caspase 3 staining
# Assay type: cell-based, mouse
# Conditions: 24 hours, 50 splenocytes:1 NIT-1 cell, NIT-1 lines stably expressing gRNA, FIG. 7
# Description: FIGS. 6A-6C show are in vitro co-culture system for studying NIT-1 cell death by NOD splenocytes. […] The ratios represent ratios of splenocytes to NIT-1 cells. For example, 50:1 indicates 50-times more splenocytes than NIT-1 cells, while 0:1 indicates NIT-1 cells cultured without splenocytes. P<0.0001=****.
# NIT-1 cells were incubated for 24 hours with splenocytes at a ratio of 50 splenocytes:1 NIT-1 cell. P<0.05=*; P<0.01=**, and P<0.001=***.
# There is little cell death over 24 hours of NIT-1 cells not co-cultured with NOD splenocytes (0:1 ratio of splenocytes to NIT-1 cells in FIG. 6B), as evidenced by weak staining of active caspase-3. In contrast, NIT-1 cells co-cultured with a high ratio of NOD splenocytes (50:1 ratio of splenocytes to NIT-1 cells in FIG. 6B) show high cell death, as evidenced by strong caspase-3 activity. […] This model can be used to study whether inhibiting or suppressing expression of target genes blocks or inhibits the ability of NOD splenocytes to mediate NIT-1 cell death over time.
row,Molecule,NIT-1 cell death mediated by NOD splenocytes (activated caspase 3)
1,"SEQ ID No: 23: gRNA targeting mouse Men1, sequence CACGCCCGAGCTGTCCAGTT (listed as DNA, chemistry not fully specified)",significantly decreased
2,"SEQ ID No: 33: second gRNA targeting mouse Men1, sequence GCTGTATGACCTCGGACATC (listed as DNA, chemistry not fully specified)",significantly decreased

# System: NIT-1 cells
# Assay: CRISPR/Cas9 whole-genome loss-of-function (LOF) screen: GeCKO library-A infected NIT-1 cells transplanted into NOD.scid mouse with diabetic NOD splenocytes, gRNA sequencing of surviving graft
# Assay type: in vivo
# Conditions: surviving NIT-1 graft of one NOD.scid mouse, ~60 days, severely hyperglycemic; mini-seq
# Text: A series of tools to run a CRISPR/Cas9 mediated whole-genome loss-of-function (LOF) screen were developed. The GeCKO V2 lentiviral pooled library was used that comprises guide RNAs (gRNAs) against every gene (Addgene, targeting >20,000 genes with 6 gRNAs/gene). This library was split into two sub-libraries (A and B), which each cover all targeted genes with 3 gRNAs/gene. These libraries cover the entire coding genome to potentially mutate every gene and also contain >1000 non-targeting gRNAs as internal negative controls. In the GeCKO library, Cas9 and gRNAs were incorporated into a single lentiviral vector to introduce these gene-targeting elements into beta cells by lentiviral infection.
# A high-stringency LOF screen was done using a single mouse. In this model, 10^7 GeCKO library-A infected NIT-1 cells (multiplicity of infection (MOI)=0.3) were injected subcutaneously, and 10^7 diabetic NOD splenocytes were injected intravenously at the same time.
# For sequencing, genomic DNA from explanted grafts was extracted with genome DNA midi prep kits, and the gRNA region was amplified from genomic DNA using established protocols.
# Selection pressure (i.e., autoimmune attack) on transplanted NIT-1 cells was maximized by waiting until NOD.scid mice had become severely hyperglycemic (˜60 days, marked by the arrow) as shown in FIG. 4. Even after the blood glucose of one recipient NOD.scid mouse had reached approximately 500 mg/dL, approximately 50,000 cells from the remaining graft could be isolated. gRNAs were amplified from the genome DNA of the graft and surveyed by mini-seq (low-depth sequencing).
# Since the GeCKO library (A library) only contain approximately 60,000 unique gRNAs, 10^6-10^7 sequencing reads was sufficient to cover the whole library and to achieve statistical significance. Typically, one high throughput sequencing reaction using the second generation Illumina system (e.g. NextSeq 500) can yield ˜150 millions of sequence reads, so multiple samples from different grafts were barcoded, mixed and sequenced together, thus greatly reducing sequencing costs.
# The sequencing data was de-barcoded and then analyzed by bioinformatics analysis. Established analysis tools such as HiTSelect or MAGeCK were used for gRNA enrichment analysis. In sum, the ability to amplify, sequence and sub-clone gRNAs after in vivo selection allowed identification of genes whose suppression improved beta cell survival.
# As expected with the high stringency selection, only 13 unique gRNAs that target 12 genes out of >60,000 gRNAs present in pre-implantation cells were identified. The number of times the gRNA was present in sequence (count), the frequency of the gRNA in the total reads, and the gene targeted by the gRNA are shown in Table 2. Two different gRNAs targeting Menl were found in the screen. The target genes in Table 2 encode for mouse SEQ ID Nos: 11-22 in Table 1, and the known human equivalents of these gene products are SEQ ID Nos: 1-10 in Table 1.
Molecule,Count (number of times the gRNA was present in sequence),Frequency (% of total reads)
"SEQ ID No: 23: gRNA targeting mouse Men1, sequence CACGCCCGAGCTGTCCAGTT (listed as DNA, chemistry not fully specified)",4919,16.34 % of total reads
"SEQ ID No: 24: gRNA targeting mouse Hivep2, sequence TACGCACTCATACTGATGTT (listed as DNA, chemistry not fully specified)",4073,13.53 % of total reads
"SEQ ID No: 25: gRNA targeting mouse Rnls, sequence CTACTCCTCTCGCTATGCTC (listed as DNA, chemistry not fully specified)",3810,12.66 % of total reads
"SEQ ID No: 26: gRNA targeting mouse Lgsn, sequence TGCAACCGCGAACCCTTACC (listed as DNA, chemistry not fully specified)",3252,10.80 % of total reads
"SEQ ID No: 27: gRNA targeting mouse GCN1 (Gcn1l1), sequence GCTTGACACTGCATCGATAT (listed as DNA, chemistry not fully specified)",3228,10.72 % of total reads
"SEQ ID No: 28: gRNA targeting mouse Gm3604, sequence ACTTTCGTATACAGATACTG (listed as DNA, chemistry not fully specified)",3226,10.72 % of total reads
"SEQ ID No: 29: gRNA targeting mouse Plin4, sequence CTGCCTCCTTAGTTCCGACA (listed as DNA, chemistry not fully specified)",2529,8.40 % of total reads
"SEQ ID No: 30: gRNA targeting mouse Med11, sequence TTTCACGCTCGATATCCTCC (listed as DNA, chemistry not fully specified)",1346,4.47 % of total reads
"SEQ ID No: 31: gRNA targeting mouse Tgm6, sequence CATCGGTGGCTGGGTCCTCC (listed as DNA, chemistry not fully specified)",1225,4.07 % of total reads
"SEQ ID No: 32: gRNA targeting mouse Zbed3, sequence GCGCGAGGCGGCCCTAATGC (listed as DNA, chemistry not fully specified)",1160,3.85 % of total reads
"SEQ ID No: 33: second gRNA targeting mouse Men1, sequence GCTGTATGACCTCGGACATC (listed as DNA, chemistry not fully specified)",702,2.33 % of total reads
"SEQ ID No: 34: gRNA targeting mouse Olfr911-ps1, sequence CTTCAAATGAGATCCACTGC (listed as DNA, chemistry not fully specified)",503,1.67 % of total reads
"SEQ ID No: 35: gRNA targeting mouse Grm2, sequence GCGGCATAACGCCACACCCG (listed as DNA, chemistry not fully specified)",131,0.44 % of total reads

# System: NIT-1 beta cells
# Assay: Thapsigargin-induced ER stress, cell viability by MTT assay
# Assay type: cell-based, mouse
# Conditions: control NIT-1 cells, thapsigargin at different dosages, 3 days
# Text: NIT-1 beta cells were genetically modified at two genes—1) Rnls; and 2) Zbed3 with CRISPR/Cas9 and guide RNAs (gRNAs) targeting Rnls and Zbed3, respectively. The modified NIT-1 cells had reduced expression of renalase (Rnls mutants) or zinc finger BED domain-containing protein 3 (Zbed3 mutants). ER stress was induced by thapsigargin, which blocks the sarco/endoplasmic reticulum Ca^2+-ATPase (SERCA) pump on the ER, thus depleting calcium from the ER and leading to misfolding of proteins in ER and eventually ER stress induced cell death. All cells were treated with thapsigargin for 3 days, and cell viability was evaluated by a standard MTT assay (see Mosmann T, J Immunol Methods 65(1-2):55-63 (1983)). […] Thus, inhibiting expression of the Rnls or Zbed3 protected beta cells from cell death induced by ER stress. See FIG. 8 (Rnls) and FIG. 9 (Zbed3).
row,Molecule,"beta cell death (cell viability, MTT)"
1,C/C=C(/C)C(=O)O[C@H]1C(C)=C2[C@H]([C@@H]1OC(=O)CCCCCCC)[C@@](C)(OC(C)=O)C[C@H](OC(=O)CCC)[C@@]1(O)[C@H]2OC(=O)[C@@]1(C)O [thapsigargin],induced beta cell death
